Assay results reported in US6539252B1, “Method and apparatus for the treatment of blood borne pathogens such as immunodeficiency virus” (priority 1996, dated 2003).

Columns and labels:
[1] = tested on: bacterial pathogens; settings: silver ions generated in small quantities in the blood stream; cited from earlier work
[2] = tested on: eukaryotic microorganisms; settings: levels as low as; cited from earlier work
[3] = tested on: mammalian cells; settings: at less than twenty parts per billion in the blood stream; cited from earlier work
[4] = human blood serum; cited from earlier work
[5] = calculated silver content in blood serum during treatment; format: in vivo, human; settings: by Faraday's law
Excerpt: (§1) To balance the need for large numbers of silver ions with the need to keep the amount of silver within safer ranges for humans, the power supply 110 supplies two and one-half microamps of current for twelve minutes at the beginning of treatment. This produces 1.56×10(13) ions of silver per second. During the twelve minutes (i.e., seven-hundred twenty seconds) that the power supply 110 supplies two and one-half microamps of current, 0.0018 Coulombs enters the bloodstream (i.e., seven-hundred and twenty seconds multiplied by two and one-half microamps). Under Faraday's law, one mole of silver ions equals 96485 Coulombs. Further, one mole of silver ions weighs 107.87 grams. Thus, in the initial twelve minute operating period, nearly two micrograms (1.94 micrograms) of silver ions are introduced into the bloodstream.
After the initial twelve minute operating period, the low intensity direct current provided by power supply 110 is reduced to one-hundred twenty five nanoamps. This causes the production of silver ions to be produced at a rate of seven-hundred seventy-four billion ions per second. Under a preferred embodiment of the present invention, this level of electric current is maintained for a period of seventy-one hours and forty-eight minutes. […]

[6] = tested on: feline immunodeficiency virus (FIV); assay: treatment of a cat infected with feline immunodeficiency virus; format: in vivo; settings: seven year old male cat with FIV; about four micrograms silver in 24 min, then one-half microgram per hour for 90 min
Excerpt: The methods of this invention have also been successfully tested on a different virus and a different host: namely, a cat infected with feline immunodeficiency virus (“FIV”). A seven year old male house cat weighing ten pounds and ten and three-quarter ounces had “heavy third eyelid”, some hair loss, eleven bite marks along his back and rump, and a wound to the top of the ear, all indicative of acute disease. The cat was anesthetized with ketamine, a catheter was placed in the neck, and the negative electrode was placed on the underchest. Approximately four micrograms of silver was delivered in twenty-four minutes, followed by one-half a microgram of silver per hour for ninety minutes.

[7] = tested on: HIV virus; assay: treatment of HIV infected human subjects with electrically generated silver ions; viral load by RNA PCR quantification, T4 cell count; format: in vivo
Excerpt: The present invention operates by providing a low intensity direct current to electrode 35. By placing the electrode pad 98 on the surface of the patient in the vicinity of electrode 35, the low intensity direct current will cause the electrode 35 to act as an anode, thereby releasing metal ions into the bloodstream of the patient. These positively charged metal ions are attracted to the negative polarity of the virus, thereby destabilizing it, as discussed above. […] The use of such a large blood vessel is preferred because metal ions such as the preferred silver ion have a half life of approximately seven seconds. The device as will be seen below, creates an average output of four-hundred billion silver cations per second. With an average blood volume of four liters passing by the electrode 35 approximately twice per minute, the probability of a virus passing by the electrode 35 and being bonded to a metal ion increases when the volume of blood available to carry the virus is higher.
as §1
After the initial twelve minute operating period, the low intensity direct current provided by power supply 110 is reduced to one-hundred twenty five nanoamps. This causes the production of silver ions to be produced at a rate of seven-hundred seventy-four billion ions per second. Under a preferred embodiment of the present invention, this level of electric current is maintained for a period of seventy-one hours and forty-eight minutes. During this time (i.e., 258,480 seconds) that the power supply 110 supplies one-hundred twenty-five nanoamps of current, […] enters the bloodstream (i.e., 258,480 seconds multiplied by one-hundred twenty-five nanoamps). Under Faraday's law, one mole of silver ions equals 96485 Coulombs. Further, one mole of silver ions weighs 107.87 grams. Thus, during this entire period, only approximately 36.1 micrograms of silver ions are introduced into the bloodstream. Thus, in the entire seventy-two hour treatment, only 38.1 micrograms of silver have been introduced into the patient's bloodstream.
In a first example, the human patient had 2,165,823 copies of the HIV virus per milliliter of blood by the RNA PCR quantification test method. In addition, this patient's T4 cell (Helper) count was at 18. This particular subject was experiencing serious kidney malfunction prior to treatment. Twenty-four hours after treatment, this patient's viral load was reduced to 1,336,817 copies of the HIV virus per milliliter of blood while the T4 cell count was 11. Because of this patient's kidney malfunction, it was suspected that most of the viral copies detected during the RNA PCR quantization test had been denatured but had not yet been removed from the patient by the kidneys. Thus, one month after treatment, the viral load was measured again and found to be reduced to 621,215 copies of the HIV virus per milliliter of blood.
Thus, the electrode 35 was placed in the subclavian vein. This patient was subjected to twelve minutes of treatment at 2.5 microamps and then only forty-seven hours and forty-eight minutes of treatment at one-hundred twenty-five nanoamps. […]

For [Ag+] [silver ions], the “quantity in the blood stream effective in destroying bacterial pathogens” value [1] is listed as “less than twenty”, the “level toxic to eukaryotic microorganisms” value [2] is listed as “one to five” and the “toxicity to mammalian cells” value [3] is listed as “totally nontoxic”. The “silver in the blood serum humans can withstand without a toxic reaction” value [4] was “thirty to eighty”, the “silver content in the blood serum” value ([5]; entire seventy-two hour treatment (38.1 micrograms silver)) was “less than nine” and the “silver content in the blood serum” value ([5]; initial twelve minutes at two and one-half microamps (1.94 micrograms silver)) was “less than five”. The “clinical outcome the next morning” value [6] was “returned to normal activity and appetite”, the “clinical outcome after treatment” value ([7]; first human patient) was “immediately felt improved health, was able to eat solid food, and experienced a dramatic increase in quality of life” and the viral load ([7]; first human patient, kidney malfunction, baseline 2,165,823, twenty-four hours after treatment, RNA PCR) was 1,336,817 copies of the HIV virus per milliliter of blood. For the same molecule, the T4 cell count ([7]; first human patient, baseline 18, twenty-four hours after treatment) was 11, the viral load ([7]; first human patient, baseline 2,165,823, one month after treatment) was 621,215 copies of the HIV virus per milliliter of blood and the “clinical outcome after treatment” value ([7]; second human subject) was “immediately felt improved health and was able to eat solid food”. The viral load ([7]; second human subject, electrode in subclavian vein, 12 min at 2.5 microamps then 47 h 48 min at 125 nanoamps, baseline 1,814,466, forty-eight hours after treatment, RNA PCR) was 394,972 copies of the HIV virus per milliliter of blood, the T4 cell count ([7]; second human subject, baseline 17, forty-eight hours after treatment) was 18 and the “clinical outcome after treatment” value ([7]; third human subject, also on AZT) was “immediately felt improved health, was able to eat solid food, and experienced a dramatic increase in quality of life”. The T4 cell count ([7]; third human subject, also on AZT, baseline 5, twenty-four hours after treatment) was 6 and the viral load ([7]; third human subject, also undergoing treatment with AZT, 12 min at 2.5 microamps then 70 h 18 min at 125 nanoamps, baseline 693,832, twenty-four hours after treatment, RNA PCR) was 634 copies of the HIV virus per milliliter of blood.
